Laboratory results published in PMC9551036, “A selective and orally bioavailable VHL-recruiting PROTAC achieves SMARCA2 degradation in vivo” (Nature Communications, 2022).

Key:
[1] = test system: VCB: PROTAC: SMARCA4^BD ternary complex; test: TR-FRET ternary complex affinity and cooperativity, SMARCA4; format: binding, human; details: ratio TR-FRET EC50 / TR-FRET EC50 +VCB measured in the same run, SMARCA4BD
PBRM1BD5 [2] = target: T1, PBRM1BD5 (Homo sapiens, UniProt P40337+Q86U86); test: TR-FRET ternary complex affinity and cooperativity, PBRM1; format: binding; details: TR-FRET competition for PBRM1BD5, + VCB; mean ± SD; read-out: TR-FRET Ternary PBRM1BD EC50 (PROTAC + VCB)
T1 construct: GST (TEV site) (N); His6 (TEV site) (N, cleaved yes); made in house; host or cells: PBRM1^BD5: Escherichia coli BL21(DE3)

PBRM1BD5 [3] = test: as above; format: binding; details: ratio TR-FRET EC50 / TR-FRET EC50 +VCB measured in the same run, PBRM1BD5
SMARCA4 = SMARCA4 (Homo sapiens, UniProt P51532); test: SMARCA4 capillary electrophoresis protein assay in RKO cells; format: cell-based; design: endogenous in cells; host or cells: RKO, HCT116, LU99, HCC-364, HCT-15, HCC4006, SK-N-AS; details: mean ± SD; for Dmax: RKO
Procedure: (§1) 130,000–200,000 cells were seeded in 24-well plates and incubated until settled down or overnight. Compounds were dissolved in DMSO and added to cells in indicated concentrations using a digital dispenser following an optional media change. Cells were incubated for 4 or 18 h as indicated. For SMARCA2/4 half-life determination, 150,000 or 200,000 cells were seeded in 24-well plates. The next day, 50 µg/ml cycloheximide (Sigma) was added and cells were incubated for 1–24 h. For SMARCA2/4 re-synthesis measurements, 200,000 cells were seeded in 24-well plates. The next day, 100 nM compound 6 was added for 4 h to degrade SMARCA2/4, and a sample was taken as baseline for normalisation. To allow re-synthesis, a VHL binder (compound 32, 25 or 50 µM) was then added for 3 or 24 h. Medium was removed, cells were washed with PBS and lysed with 80 µl Lysis Buffer (MSD Tris Lysis Buffer (#R60TX-2) + Halt Inhibitor Cocktail (100x) + Benzonase 0.5 µL/ml). Samples were frozen at −80 °C and thawed at room temperature before use. Samples were transferred to a V-bottom plate and insoluble debris was pelleted by centrifugation for 5 min at maximum speed. The supernatant was transferred to a fresh plate. Master Mix and Ladder were prepared according to manufacturer’s instructions for 12–230 kDa Wes Separation Module, 8 × 25 capillary cartridges, Protein Simple #SM-W004 with Anti-Rabbit Detection Module for Wes, Peggy Sue or Sally Sue, Protein Simple #DM-001. 4.8 µl lysate were mixed with 1.2 µl Master Mix to achieve a protein concentration of ~0.5 µg/µl. Antibodies were diluted in Antibody Diluent II (SMARCA2 Sigma #HPA029981 RRID:AB_10602406 1:25–100, SMARCA4 Cell Signalling #49360 clone D1Q7F RRID:AB_2728743 1:15–120 or Abcam #ab110641 clone EPNCIR111A RRID:AB_10861578 1:60, GAPDH Abcam #ab9485 RRID:AB_307275 1:250). Wes plates were prepared and run according to manufacturer’s instructions. Proteins were quantified with accompanying Compass Software. SMARCA2/4 protein levels were normalised to GAPDH. […] Where applicable, curves were fitted using a 4-parametric logistic model.

SMARCA2 = SMARCA2 (Homo sapiens, UniProt P51531); test: SMARCA2 capillary electrophoresis protein assay in RKO cells; format: cell-based; design: endogenous in cells; host or cells: RKO, NCI-H1568, A549, HCT116, LU99, HCC-364, HCT-15, HCC4006, SK-N-AS; details: mean ± SD; for Dmax: RKO
Procedure: as §1, with “Cells were incubated for 4 or 18 h as indicated.” left out, “The next day, 50 µg/ml cycloheximide (Sigma) was added and cells were incubated for 1–24 h.” left out, “The next day, 100 nM compound 6 was added for 4 h to degrade SMARCA2/4, and a sample was taken as baseline for normalisation. To allow re-synthesis, a VHL binder (compound 32, 25 or 50 µM) was then added for 3 or 24 h.” left out, “Antibodies were diluted in Antibody Diluent II (SMARCA2 Sigma #HPA029981 RRID:AB_10602406 1:25–100, SMARCA4 Cell Signalling #49360 clone D1Q7F RRID:AB_2728743 1:15–120 or Abcam #ab110641 clone EPNCIR111A RRID:AB_10861578 1:60, GAPDH Abcam #ab9485 RRID:AB_307275 1:250).” left out

Sequence of SMARCA4 (P51532 whole entry): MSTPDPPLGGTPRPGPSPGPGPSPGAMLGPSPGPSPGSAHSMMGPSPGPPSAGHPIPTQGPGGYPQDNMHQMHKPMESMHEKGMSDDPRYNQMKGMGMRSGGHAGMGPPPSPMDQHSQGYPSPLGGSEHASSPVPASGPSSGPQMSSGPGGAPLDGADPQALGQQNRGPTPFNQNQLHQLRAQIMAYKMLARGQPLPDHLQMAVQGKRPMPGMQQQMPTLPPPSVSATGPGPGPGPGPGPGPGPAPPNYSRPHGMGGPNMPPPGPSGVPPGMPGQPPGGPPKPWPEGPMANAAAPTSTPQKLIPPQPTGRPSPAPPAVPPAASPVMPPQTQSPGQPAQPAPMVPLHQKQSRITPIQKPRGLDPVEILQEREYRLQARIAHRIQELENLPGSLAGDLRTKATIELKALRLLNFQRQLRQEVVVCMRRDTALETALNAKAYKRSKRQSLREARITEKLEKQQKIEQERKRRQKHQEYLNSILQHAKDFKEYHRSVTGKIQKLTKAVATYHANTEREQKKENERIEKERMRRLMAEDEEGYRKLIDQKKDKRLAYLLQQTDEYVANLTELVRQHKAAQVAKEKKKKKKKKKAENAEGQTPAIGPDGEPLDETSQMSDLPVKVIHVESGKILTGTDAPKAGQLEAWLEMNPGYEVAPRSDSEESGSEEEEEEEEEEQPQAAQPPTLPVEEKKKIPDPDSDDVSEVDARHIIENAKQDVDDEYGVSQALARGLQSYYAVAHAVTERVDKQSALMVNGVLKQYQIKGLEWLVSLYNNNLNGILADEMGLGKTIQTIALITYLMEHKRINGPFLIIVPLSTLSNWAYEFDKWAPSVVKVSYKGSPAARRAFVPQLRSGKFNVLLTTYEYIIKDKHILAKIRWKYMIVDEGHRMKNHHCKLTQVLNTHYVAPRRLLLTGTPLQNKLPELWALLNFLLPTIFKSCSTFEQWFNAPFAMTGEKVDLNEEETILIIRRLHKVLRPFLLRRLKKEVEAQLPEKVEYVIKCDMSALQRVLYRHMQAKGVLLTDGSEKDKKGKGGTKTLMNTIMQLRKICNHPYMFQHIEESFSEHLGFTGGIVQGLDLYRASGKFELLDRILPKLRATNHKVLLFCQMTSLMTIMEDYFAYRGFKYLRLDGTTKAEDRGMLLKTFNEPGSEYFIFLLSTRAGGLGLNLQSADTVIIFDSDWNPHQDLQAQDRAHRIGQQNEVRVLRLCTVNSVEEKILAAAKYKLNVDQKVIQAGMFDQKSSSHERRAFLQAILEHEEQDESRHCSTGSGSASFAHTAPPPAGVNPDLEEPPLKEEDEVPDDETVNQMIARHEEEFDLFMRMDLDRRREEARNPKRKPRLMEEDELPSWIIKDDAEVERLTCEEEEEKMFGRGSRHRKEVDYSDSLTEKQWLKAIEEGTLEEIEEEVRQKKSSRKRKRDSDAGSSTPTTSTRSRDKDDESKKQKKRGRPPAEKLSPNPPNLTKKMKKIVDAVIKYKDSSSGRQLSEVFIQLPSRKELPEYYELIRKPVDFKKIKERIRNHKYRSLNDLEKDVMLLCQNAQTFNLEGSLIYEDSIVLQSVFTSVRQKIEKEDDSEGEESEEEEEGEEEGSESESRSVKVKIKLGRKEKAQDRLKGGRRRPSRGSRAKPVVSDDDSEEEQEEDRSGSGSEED
T1 sequence (Q86U86 645-766): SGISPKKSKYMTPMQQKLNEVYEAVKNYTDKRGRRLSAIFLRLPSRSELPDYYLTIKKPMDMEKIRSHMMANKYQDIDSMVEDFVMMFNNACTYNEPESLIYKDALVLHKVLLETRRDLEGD
T1 sequence (P40337 54-213): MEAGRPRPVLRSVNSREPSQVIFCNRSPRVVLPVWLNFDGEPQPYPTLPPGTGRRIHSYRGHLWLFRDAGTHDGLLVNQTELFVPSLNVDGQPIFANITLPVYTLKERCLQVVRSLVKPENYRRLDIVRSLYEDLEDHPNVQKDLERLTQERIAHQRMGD
T1 sequence (Q15369 17-112 partner): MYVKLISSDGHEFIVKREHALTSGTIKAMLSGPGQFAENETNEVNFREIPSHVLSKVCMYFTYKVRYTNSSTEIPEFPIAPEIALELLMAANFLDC
T1 sequence (Q15370 1-104 partner): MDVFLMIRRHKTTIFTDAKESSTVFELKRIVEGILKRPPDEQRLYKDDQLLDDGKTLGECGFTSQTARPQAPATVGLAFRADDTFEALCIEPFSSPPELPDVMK
Sequence of SMARCA2 (P51531 whole entry): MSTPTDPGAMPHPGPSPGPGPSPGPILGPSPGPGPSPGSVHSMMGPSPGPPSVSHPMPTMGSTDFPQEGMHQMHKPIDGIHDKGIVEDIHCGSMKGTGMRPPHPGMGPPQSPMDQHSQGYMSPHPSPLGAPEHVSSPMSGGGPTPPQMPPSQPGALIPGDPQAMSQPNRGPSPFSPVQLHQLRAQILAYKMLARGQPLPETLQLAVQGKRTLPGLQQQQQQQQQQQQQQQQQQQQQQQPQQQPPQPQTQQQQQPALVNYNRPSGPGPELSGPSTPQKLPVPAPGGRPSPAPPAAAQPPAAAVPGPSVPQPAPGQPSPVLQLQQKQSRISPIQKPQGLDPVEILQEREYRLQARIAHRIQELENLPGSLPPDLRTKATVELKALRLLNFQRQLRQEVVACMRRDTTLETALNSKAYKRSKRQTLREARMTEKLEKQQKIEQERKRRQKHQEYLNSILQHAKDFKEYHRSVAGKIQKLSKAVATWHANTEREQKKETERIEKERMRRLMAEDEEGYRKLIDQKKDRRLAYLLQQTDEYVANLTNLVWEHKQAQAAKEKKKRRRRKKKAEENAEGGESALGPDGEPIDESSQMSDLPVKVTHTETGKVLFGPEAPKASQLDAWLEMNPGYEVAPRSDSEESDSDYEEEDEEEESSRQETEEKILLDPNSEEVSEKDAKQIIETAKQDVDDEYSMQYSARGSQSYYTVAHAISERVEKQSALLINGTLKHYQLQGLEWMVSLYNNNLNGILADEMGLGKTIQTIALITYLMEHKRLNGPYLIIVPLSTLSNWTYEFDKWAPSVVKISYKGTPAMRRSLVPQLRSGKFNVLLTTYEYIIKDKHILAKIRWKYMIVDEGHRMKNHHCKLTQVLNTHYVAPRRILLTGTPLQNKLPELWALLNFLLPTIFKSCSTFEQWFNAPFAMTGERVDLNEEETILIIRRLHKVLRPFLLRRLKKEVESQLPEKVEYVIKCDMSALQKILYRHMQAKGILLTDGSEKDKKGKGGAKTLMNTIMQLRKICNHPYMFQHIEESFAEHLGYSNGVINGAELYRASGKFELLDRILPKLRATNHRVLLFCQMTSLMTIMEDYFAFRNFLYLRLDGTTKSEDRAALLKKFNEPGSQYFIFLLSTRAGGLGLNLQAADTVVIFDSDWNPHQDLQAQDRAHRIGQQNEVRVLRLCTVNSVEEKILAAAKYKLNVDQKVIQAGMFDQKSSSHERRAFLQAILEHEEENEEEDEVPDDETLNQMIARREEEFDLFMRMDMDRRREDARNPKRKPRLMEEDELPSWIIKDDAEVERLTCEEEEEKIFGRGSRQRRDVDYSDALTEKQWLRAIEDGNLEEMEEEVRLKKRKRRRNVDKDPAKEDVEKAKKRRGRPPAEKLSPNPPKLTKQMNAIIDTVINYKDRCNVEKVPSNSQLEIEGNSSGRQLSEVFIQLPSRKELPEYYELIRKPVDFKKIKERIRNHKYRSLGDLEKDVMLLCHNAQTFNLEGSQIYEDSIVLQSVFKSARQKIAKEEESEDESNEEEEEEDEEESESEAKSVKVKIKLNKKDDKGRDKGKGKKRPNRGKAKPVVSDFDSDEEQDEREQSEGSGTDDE

SMILES | cooperativity α (SMARCA4BD) [1] | EC50 (PBRM1BD5 [2]) [nM] | cooperativity α (PBRM1BD) (PBRM1BD5 [3]) | DC50 (SMARCA4; RKO (4 h)) [nM] | SMARCA4 Dmax (SMARCA4; RKO (4 h)) [%] | DC50 (SMARCA4; RKO (18 h)) [nM] | SMARCA4 Dmax (SMARCA4; RKO (18 h)) [%] | DC50 (SMARCA2; RKO (4 h)) [nM] | DC50 (SMARCA2; RKO (18 h)) [nM] | SMARCA2 Dmax (SMARCA2; RKO (18 h)) [%] | SMARCA2 Dmax (SMARCA2; RKO (4 h)) [%] | Dmax (SMARCA4; RKO (4 h)) [%] | Dmax (SMARCA4; RKO (18 h)) [%] | Dmax (SMARCA2; RKO (4 h)) [%] | Dmax (SMARCA2; RKO (18 h)) [%]
Cc1ncsc1-c1ccc(CNC(=O)[C@@H]2C[C@@H](O)CN2C(=O)[C@@H](NC(=O)C2(F)CC2)C(C)(C)C)c(OCCOCCOCCN2CCC(c3ccc4c(c3)n(C3CCCC3)c3nc(=O)c5c(Br)cccc5n43)CC2)c1 [compound 21] | 4.0 ± 0.2 | 38 ± 4 | 2.0 ± 0.1 | 21 ± 19 | 61 ± 16 | 83 ± 78 | 75 ± 3 | > 25000 | 106 ± 38 | 67± 8 | – | – | – | – | –
Cc1ncsc1-c1ccc(CNC(=O)[C@@H]2C[C@@H](O)CN2C(=O)[C@@H](NC(=O)C2(F)CC2)C(C)(C)C)c(OCCOCCOCCOCCN2CCC(c3ccc4c(c3)n(C3CCCC3)c3nc(=O)c5c(Br)cccc5n43)CC2)c1 [compound 22] | 9.1 ± 0.7 | 38 ± 5 | 2.6 ± 0.1 | 54 ± 47 | 84 ± 1 | 77 ± 67 | 89 ± 5 | 175 ± 165 | 148 ± 97 | 75 ± 8 | 71 ± 25 | – | – | – | –
Cc1ncsc1-c1ccc(CNC(=O)[C@@H]2C[C@@H](O)CN2C(=O)[C@@H](NC(=O)C2(F)CC2)C(C)(C)C)c(OCCCCN2CCC(c3ccc4c(c3)n(C3CCCC3)c3nc(=O)c5c(Br)cccc5n43)CC2)c1 [compound 23] | 0.9 ± 0.1 | 21 ± 3 | 2.0 ± 0.4 | > 25000 | – | 1260 | 76 ± 30 | > 25000 | 39 ± 10 | 37 ± 5 | – | – | – | – | –
Cc1ncsc1-c1ccc([C@H](CCCCN2CCC(c3ccc4c(c3)n(C3CCCC3)c3nc(=O)c5c(Br)cccc5n43)CC2)NC(=O)[C@@H]2C[C@@H](O)CN2C(=O)[C@@H](NC(=O)C2(F)CC2)C(C)(C)C)cc1 [compound 25] | 2.3 ± 0.4 | 3 ± 1 | 11.2 ± 2.1 | – | – | 40 ± 16 | 52 ± 21 | 3 ± 1 | 3 ± 1 | 80 ± 6 | 66 ± 5 | – | – | – | –
Cc1ncsc1-c1ccc([C@H](COCCN2CCC(c3ccc4c(c3)n(C3CCCC3)c3nc(=O)c5c(Br)cccc5n43)CC2)NC(=O)[C@@H]2C[C@@H](O)CN2C(=O)[C@@H](NC(=O)C2(N(C)C)CC2)C(C)(C)C)cc1 [compound 26] | 2.6 ± 0.7 | 6 ± 2 | 4.0 ± 1.2 | 81 ± 14 | – | 83 ± 21 | – | 12 ± 7 | 6 ± 2 | – | – | 61 ± 15 | 82 ± 5 | 77 ± 3 | 82 ± 4
Cc1ncsc1-c1ccc([C@H](COCCCN2CCC(c3ccc4c(c3)n(C3CCCC3)c3nc(=O)c5c(Br)cccc5n43)CC2)NC(=O)[C@@H]2C[C@@H](O)CN2C(=O)[C@@H](NC(=O)C2(F)CC2)C(C)(C)C)cc1 [compound 27] | 2.8 ± 0.5 | 3 ± 0.5 | 12.2 ± 2.8 | 42 ± 3 | 55 ± 2 | 29 ± 6 | 83 ± 7 | 5 ± 2 | 2 ± 1 | 85 ± 3 | 70 ± 7 | – | – | – | –
Cc1ncsc1-c1ccc([C@H](COC(C)(C)CN2CCC(c3ccc4c(c3)n(C3CCCC3)c3nc(=O)c5c(Br)cccc5n43)CC2)NC(=O)[C@@H]2C[C@@H](O)CN2C(=O)[C@@H](NC(=O)C2(F)CC2)C(C)(C)C)cc1 [compound 28] | 3.2 ± 0.7 | 4 ± 2 | 6.9 ± 1.9 | > 25000 | – | 159 ± 57 | 14 ± 42 | 17 ± 8 | 5 ± 2 | 76 ± 11 | 69 ± 4 | – | – | – | –
Cc1ncsc1-c1ccc([C@H](CC[C@@H](C)CCN2CCC(c3ccc4c(c3)n(C3CCCC3)c3nc(=O)c5c(Br)cccc5n43)CC2)NC(=O)[C@@H]2C[C@@H](O)CN2C(=O)[C@@H](NC(=O)C2(F)CC2)C(C)(C)C)cc1 [compound 29] | 7.0 ± 1.3 | 3 ± 1 | 24.9 ± 2.4 | 15 ± 6 | 68 ± 6 | 11 ± 3 | 87 ± 6 | 2 ± 1 | 1 ± 0.1 | 84 ± 4 | 74 ± 2 | – | – | – | –
Cc1ncsc1-c1ccc([C@H](CCC(C)(C)CCN2CCC(c3ccc4c(c3)n(C3CCCC3)c3nc(=O)c5c(Br)cccc5n43)CC2)NC(=O)[C@@H]2C[C@@H](O)CN2C(=O)[C@@H](NC(=O)C2(F)CC2)C(C)(C)C)cc1 [compound 30] | 4.3 ± 0.5 | 6 ± 2 | 22.4 ± 3.9 | > 25000 | – | 73 ± 35 | 72 ± 7 | 8 ± 2 | 3 ± 1 | 82 ± 5 | 74 ± 5 | – | – | – | –
